Marks after values point to notes of the source that are not given here.
Tests used:
lactating cows = test: Example 2: 3x3 Latin square feeding of lactating cows, control ration plus about 50 or 100 g sorbitol per day; type: in vivo, Holstein cows; settings: for Milk Protein / Lactose / Total Solids / Dry Matter Intake / Milk Production: last 14 of 28 days
Source text: In this example, fifteen Holstein cows (nine multiparous and six primiparous) averaging about sixty-five days in milk each, and thus in early lactation, were arranged in a 3×3 Latin square design, also known as the switch back design, that was replicated five times. Each cow was randomly allotted to the control ration treatment, to the first test ration treatment, or to the second test ration treatment. In the 3×3 Latin square design, each cow is cycled through each treatment, namely, the control ration treatment, the first test ration treatment, and the second test ration treatment. This permits each cow to act as a control for standardizing the testing differences observed between each treatment for each cow. Sufficient time between feeding treatments (between the control ration treatment, the first ration test treatment, and the second test ration treatment) was allowed to permit normalization of each cow before being switched to a different treatment. The cows were blocked by parity milk production, based upon the level of milk production by individual cows, after being in milk for forty-five days. After being blocked by parity milk production, the cows were randomly allotted to the control ration feeding, the first test ration feeding, or the second test ration feeding. The components of the control ration used in this example are shown in Table 5: The control ration was placed in the feeding troughs of the cattle once daily in the morning. When the first test ration was to be provided to the test cattle, sorbitol was top dressed and lightly mixed into the control ration in the feeding trough of each cow being supplied with the first test ration dosage of about 50 grams of sorbitol per cow per day, about one hour after the control ration was placed in the feeding trough. When the second test ration was to be provided to the test cattle, sorbitol was top dressed and lightly mixed into the control ration in the feeding trough of each cow being supplied with the second test ration dosage of about 100 grams of sorbitol per cow per day, about one hour after the control ration was placed in the feeding trough. Then, the control ration, the first test ration, and the second test ration were lightly mixed in front of the cows six times per day to encourage additional feed ingestion by the cattle. Leftover rations from the previous days feeding were collected and weighed from each feeding trough prior to feeding the test cattle the next day. The cows received a sufficient amount of the control ration to ensure that at least about ten weight percent, based upon the amount of control ration provided at the beginning of each day, remained per day for each test cow. The amount of sorbitol that was top dressed in the control ration to form the first test ration was adjusted upward to account for the excess of control ration provided to ensure that the cows ingested the first test ration dosage of about 50 grams of sorbitol per cow per day. Likewise, the amount of sorbitol that was top dressed in the control ration to form the second test ration was adjusted upward to account for the excess of control ration provided to ensure that the cows ingested the second test ration dosage of about 100 grams of sorbitol per cow per day. Feed refusals were measured daily, and water was supplied ad libitum. Each test cow received routine care and management consistent with appropriate recommendations in the Guide for the Care and Use of Agricultural Animals in Agricultural Research and Teaching (1st edition, March 1988). Each cow was milked three times daily and the weight of produced milk was recorded at each milking. The milk was sampled once per day (⅓ of the sample volume from each milking) and was analyzed for protein, fat, lactose, and total solids, in accordance with the property determination and characterization techniques presented above. […]

[1] = Passage of orally fed sorbitol through the rumen into the abomasum; type: in vivo, ruminant; settings: within about six to about eight hours after entering the rumen; based on total amount orally fed

share of orally fed sugar alcohol passing through the rumen into the abomasum [1]: at least 50 weight percent
Compound: OC[C@@H](O)[C@@H](O)[C@H](O)[C@@H](O)CO [sorbitol]
Milk Protein (lactating cows; about 50 g sorbitol/day/cow, Block 1, control 2.23, P >0.10): 2.22 pounds/day/cow | Lactose (lactating cows; about 50 g sorbitol/day/cow, Block 1, control 3.99, P >0.10): 4.10 pounds/day/cow | Total Solids (lactating cows; about 50 g sorbitol/day/cow, Block 1, control 9.51, P >0.10): 9.77 pounds/day/cow | Dry Matter Intake (lactating cows; about 50 g sorbitol/day/cow, Block 1, control 45.0, P >0.10): 44.2 pounds/day/cow | Milk Protein (lactating cows; about 50 g sorbitol/day/cow, Block 2, control 2.13, P >0.10): 2.18 pounds/day/cow | Lactose (lactating cows; about 50 g sorbitol/day/cow, Block 2, control 3.72, P 0.07): 3.89^b pounds/day/cow | Total Solids (lactating cows; about 50 g sorbitol/day/cow, Block 2, control 8.95, P >0.10): 9.48 pounds/day/cow | Dry Matter Intake (lactating cows; about 50 g sorbitol/day/cow, Block 2, control 42.9, P 0.04): 45.3^b pounds/day/cow | Milk Production (lactating cows; about 50 g sorbitol/day/cow, Block 2, control 75.3, P 0.10): 78.0^b pounds/day/cow | Milk Protein (lactating cows; about 50 g sorbitol/day/cow, Block 3, control 2.62, P >0.10): 2.89 pounds/day/cow | Lactose (lactating cows; about 50 g sorbitol/day/cow, Block 3, control 4.32, P >0.10): 4.84 pounds/day/cow | Total Solids (lactating cows; about 50 g sorbitol/day/cow, Block 3, control 10.70, P >0.10): 11.53 pounds/day/cow | Dry Matter Intake (lactating cows; about 50 g sorbitol/day/cow, Block 3, control 54.4, P 0.10): 60.7^b pounds/day/cow | Milk Production (lactating cows; about 50 g sorbitol/day/cow, Block 3, control 89.0, P 0.28): 98.8 pounds/day/cow | Milk Protein (lactating cows; about 50 g sorbitol/day/cow, Block 4, control 2.83, P 0.08): 3.18^b pounds/day/cow | Lactose (lactating cows; about 50 g sorbitol/day/cow, Block 4, control 4.56, P 0.06): 4.88^b pounds/day/cow | Total Solids (lactating cows; about 50 g sorbitol/day/cow, Block 4, control 11.46, P 0.09): 12.35^b pounds/day/cow | Dry Matter Intake (lactating cows; about 50 g sorbitol/day/cow, Block 4, control 61.0, P >0.10): 62.6 pounds/day/cow | Milk Production (lactating cows; about 50 g sorbitol/day/cow, Block 4, control 97.6, P 0.07): 102.9^b pounds/day/cow | Milk Protein (lactating cows; about 50 g sorbitol/day/cow, Block 5, control 3.35, P >0.10): 3.39 pounds/day/cow | Lactose (lactating cows; about 50 g sorbitol/day/cow, Block 5, control 5.70, P 0.05): 5.86^b pounds/day/cow | Total Solids (lactating cows; about 50 g sorbitol/day/cow, Block 5, control 13.46, P >0.10): 13.83 pounds/day/cow | Dry Matter Intake (lactating cows; about 50 g sorbitol/day/cow, Block 5, control 65.1, P >0.10): 66.6 pounds/day/cow | Milk Production (lactating cows; about 50 g sorbitol/day/cow, Block 5, control 119.1, P 0.10): 122.4^b pounds/day/cow | Milk Protein (lactating cows; about 50 g sorbitol/day/cow, all cows, control 2.63, P >0.10): 2.77 pounds/day/cow | Lactose (lactating cows; about 50 g sorbitol/day/cow, all cows, control 4.46, P 0.04): 4.71^b pounds/day/cow | Total Solids (lactating cows; about 50 g sorbitol/day/cow, all cows, control 10.82, P 0.07): 11.39^b pounds/day/cow | Dry Matter Intake (lactating cows; about 50 g sorbitol/day/cow, all cows, control 53.7, P 0.05): 55.9^b pounds/day/cow | Milk Production (lactating cows; about 50 g sorbitol/day/cow, all cows, control 92.9, P 0.05): 97.5^b pounds/day/cow | Milk Protein (lactating cows; about 50 g sorbitol/day/cow, multiparous cows only, control 2.93, P 0.08): 3.15^b pounds/day/cow | Lactose (lactating cows; about 50 g sorbitol/day/cow, multiparous cows only, control 4.86, P 0.07): 5.19^b pounds/day/cow | Total Solids (lactating cows; about 50 g sorbitol/day/cow, multiparous cows only, control 11.87, P >0.10): 12.57 pounds/day/cow | Dry Matter Intake (lactating cows; about 50 g sorbitol/day/cow, multiparous cows only, control 60.2, P 0.09): 63.3^b pounds/day/cow | Milk Production (lactating cows; about 50 g sorbitol/day/cow, multiparous cows only, control 101.9, P 0.07): 108.0^b pounds/day/cow | Milk Protein (lactating cows; about 50 g sorbitol/day/cow, primiparous cows only, control 2.18, P >0.10): 2.20 pounds/day/cow | Lactose (lactating cows; about 50 g sorbitol/day/cow, primiparous cows only, control 3.85, P >0.10): 3.99 pounds/day/cow | Total Solids (lactating cows; about 50 g sorbitol/day/cow, primiparous cows only, control 9.23, P >0.10): 9.63 pounds/day/cow | Dry Matter Intake (lactating cows; about 50 g sorbitol/day/cow, primiparous cows only, control 44.0, P >0.10): 44.7 pounds/day/cow | Milk Production (lactating cows; about 50 g sorbitol/day/cow, primiparous cows only, control 79.5, P >0.10): 81.8 pounds/day/cow | Milk Protein (lactating cows; about 100 g sorbitol/day/cow, Block 1, control 2.23, P >0.10): 2.19 pounds/day/cow | Lactose (lactating cows; about 100 g sorbitol/day/cow, Block 1, control 3.99, P >0.10): 4.07 pounds/day/cow | Total Solids (lactating cows; about 100 g sorbitol/day/cow, Block 1, control 9.51, P >0.10): 9.94 pounds/day/cow | Dry Matter Intake (lactating cows; about 100 g sorbitol/day/cow, Block 1, control 45.0, P >0.10): 44.4 pounds/day/cow | Milk Production (lactating cows; about 100 g sorbitol/day/cow, Block 1, control 83.7, P >0.10): 85.2 pounds/day/cow | Milk Protein (lactating cows; about 100 g sorbitol/day/cow, Block 2, control 2.13, P >0.10): 2.12 pounds/day/cow | Lactose (lactating cows; about 100 g sorbitol/day/cow, Block 2, control 3.72, P 0.07): 3.82^ab pounds/day/cow | Total Solids (lactating cows; about 100 g sorbitol/day/cow, Block 2, control 8.95, P >0.10): 9.29 pounds/day/cow | Dry Matter Intake (lactating cows; about 100 g sorbitol/day/cow, Block 2, control 42.9, P 0.04): 42.6^ab pounds/day/cow | Milk Production (lactating cows; about 100 g sorbitol/day/cow, Block 2, control 75.3, P 0.10): 77.1^ab pounds/day/cow | Milk Protein (lactating cows; about 100 g sorbitol/day/cow, Block 3, control 2.62, P >0.10): 2.85 pounds/day/cow | Lactose (lactating cows; about 100 g sorbitol/day/cow, Block 3, control 4.32, P >0.10): 4.86 pounds/day/cow | Total Solids (lactating cows; about 100 g sorbitol/day/cow, Block 3, control 10.70, P >0.10): 11.62 pounds/day/cow | Dry Matter Intake (lactating cows; about 100 g sorbitol/day/cow, Block 3, control 54.4, P 0.10): 60.1^ab pounds/day/cow | Milk Production (lactating cows; about 100 g sorbitol/day/cow, Block 3, control 89.0, P 0.28): 99.0 pounds/day/cow | Milk Protein (lactating cows; about 100 g sorbitol/day/cow, Block 4, control 2.83, P 0.08): 3.01^ab pounds/day/cow | Lactose (lactating cows; about 100 g sorbitol/day/cow, Block 4, control 4.56, P 0.06): 4.57^ab pounds/day/cow | Total Solids (lactating cows; about 100 g sorbitol/day/cow, Block 4, control 11.46, P 0.09): 11.01^ab pounds/day/cow | Dry Matter Intake (lactating cows; about 100 g sorbitol/day/cow, Block 4, control 61.0, P >0.10): 61.2 pounds/day/cow | Milk Production (lactating cows; about 100 g sorbitol/day/cow, Block 4, control 97.6, P 0.07): 95.9^ab pounds/day/cow | Milk Protein (lactating cows; about 100 g sorbitol/day/cow, Block 5, control 3.35, P >0.10): 3.36 pounds/day/cow | Lactose (lactating cows; about 100 g sorbitol/day/cow, Block 5, control 5.70, P 0.05): 5.78^ab pounds/day/cow | Total Solids (lactating cows; about 100 g sorbitol/day/cow, Block 5, control 13.46, P >0.10): 13.78 pounds/day/cow | Dry Matter Intake (lactating cows; about 100 g sorbitol/day/cow, Block 5, control 65.1, P >0.10): 65.8 pounds/day/cow | Milk Production (lactating cows; about 100 g sorbitol/day/cow, Block 5, control 119.1, P 0.10): 121.0^ab pounds/day/cow | Milk Protein (lactating cows; about 100 g sorbitol/day/cow, all cows, control 2.63, P >0.10): 2.71 pounds/day/cow | Lactose (lactating cows; about 100 g sorbitol/day/cow, all cows, control 4.46, P 0.04): 4.62^ab pounds/day/cow | Total Solids (lactating cows; about 100 g sorbitol/day/cow, all cows, control 10.82, P 0.07): 11.12^ab pounds/day/cow | Dry Matter Intake (lactating cows; about 100 g sorbitol/day/cow, all cows, control 53.7, P 0.05): 54.8^ab pounds/day/cow | Milk Production (lactating cows; about 100 g sorbitol/day/cow, all cows, control 92.9, P 0.05): 95.6^ab pounds/day/cow | Milk Protein (lactating cows; about 100 g sorbitol/day/cow, multiparous cows only, control 2.93, P 0.08): 3.07^ab pounds/day/cow | Lactose (lactating cows; about 100 g sorbitol/day/cow, multiparous cows only, control 4.86, P 0.07): 5.07^ab pounds/day/cow | Total Solids (lactating cows; about 100 g sorbitol/day/cow, multiparous cows only, control 11.87, P >0.10): 12.13 pounds/day/cow | Dry Matter Intake (lactating cows; about 100 g sorbitol/day/cow, multiparous cows only, control 60.2, P 0.09): 62.3^ab pounds/day/cow | Milk Production (lactating cows; about 100 g sorbitol/day/cow, multiparous cows only, control 101.9, P 0.07): 105.3^ab pounds/day/cow | Milk Protein (lactating cows; about 100 g sorbitol/day/cow, primiparous cows only, control 2.18, P >0.10): 2.16 pounds/day/cow | Lactose (lactating cows; about 100 g sorbitol/day/cow, primiparous cows only, control 3.85, P >0.10): 3.95 pounds/day/cow | Total Solids (lactating cows; about 100 g sorbitol/day/cow, primiparous cows only, control 9.23, P >0.10): 9.62 pounds/day/cow | Dry Matter Intake (lactating cows; about 100 g sorbitol/day/cow, primiparous cows only, control 44.0, P >0.10): 43.5 pounds/day/cow | Milk Production (lactating cows; about 100 g sorbitol/day/cow, primiparous cows only, control 79.5, P >0.10): 81.2 pounds/day/cow | improvement of milk production rate versus cows fed only the control ration (lactating cows; first test ration, about 50 g sorbitol per day, all cows): 4.6 pounds per day per cow | improvement of milk production rate versus cows fed only the control ration (lactating cows; second test ration, about 100 g sorbitol per day, all cows): 2.7 pounds per day per cow
